In data set [1] the target is KRAS (G12D)::CRAF protein::protein interaction (Homo sapiens (Human), UniProt P01116, G12D). In words: KRAS TR-FRET assay (KRAS G12D::CRAF, GTP). Type of data set: binding. Here is the method:
(§1) This assay measures the inhibitory effect of compounds on KRAS::CRAF protein::protein interactions in the presence of GTP using Time-resolved fluorescence energy transfer (TR-FRET).
(§2) The following wildtype or mutant alleles of KRAS and CRAF protein have been used at the given concentrations:
KRAS (G12D) 1-169, N-terminal 6His-tag, C-terminal avi-tag (Xtal BioStructures, Inc.); final assay concentration 15 nM,
(§3) CRAF Ras binding domain, GST-tag, TEV cleavage site (Boehringer Ingelheim in house protein prep); final assay concentration 15 nM.
(§4) Test compounds dissolved in DMSO were dispensed onto assay plates (Proxiplate 384 PLUS, white, PerkinElmer; 6008289) using an Access Labcyte Workstation with the Labcyte Echo 55x. For the chosen highest assay concentration of 100 μM, 150 nl of compound solution was transferred from a 10 mM DMSO compound stock solution. A series of eleven fivefold dilutions per compound was transferred to the assay plate, compound dilutions were tested in duplicates. DMSO was added as backfill to a total volume of 150 nl.
(§5) The assay runs on a fully automated robotic system. To 150 nl of compound dilution 15 μl of a mix including the respective KRAS allele, CRAF (e.g. KRAS (G12D)::CRAF; final assay concentrations see above), GTP nucleotide (Sigma G8877; final assay concentration 10 μM), Lance Eu—W1024 labeled Streptavidin (PerkinElmer, Cat No AD0063; final assay concentration 1.5 nM) and Anti-GST surelight APC (PerkinElmer, Cat No AD0059G; final assay concentration 30 nM) in assay buffer (1×PBS, 0.1% BSA, 0.05% Tween 20) are added into columns 1-23 and 15 μL of the solution without the respective KRAS allele were added to row 24.
(§6) Plates are kept at room temperature in a darkened incubator. After 60 minutes incubation time the signal is measured in a PerkinElmer Envision HTS Multilabel Reader using the TR-FRET LANCE Ultra specs from PerkinElmer.
(§7) Each plate contains 16 wells of a negative control (diluted DMSO instead of test compound; w respective KRAS allele; column 23) and 16 wells of a positive control (diluted DMSO instead of test compound; w/o respective KRAS allele; column 24).
(§8) IC50 values were calculated and analyzed with Boehringer Ingelheim's MEGALAB 50 application using a 4 parametric logistic model.
(§9) Tables of example compounds disclosed herein contain IC50 values determined using the above assays (see Table 44).
A general note: In TR-FRET formats the signal depends on donor and acceptor labels being close together.

Data set [2] concerns the target KRAS (G12V)::CRAF protein::protein interaction (Homo sapiens (Human), UniProt P01116, C118S/G12V). In words: KRAS TR-FRET assay (KRAS G12V::CRAF, GTP). It counts as binding. Here is the method:
as §1, §2
KRAS (G12V) 1-169, C118S, N-terminal 6His-tag, C-terminal avi-tag (Boehringer Ingelheim in house protein prep); final assay concentration 15 nM.
as §3, §4, §5, §6, §7, §8, §9

In data set [3] the target is KRAS (WT)::CRAF protein::protein interaction (Homo sapiens (Human), UniProt P01116). Kind of data set: KRAS TR-FRET assay (KRAS WT::CRAF, GTP). It counts as binding. As to the method:
as §1, §2
KRAS (WT) 1-169, N-terminal 6His-tag, C-terminal avi-tag (Boehringer Ingelheim in house protein prep); final assay concentration 15 nM.
as §3, §4, §5, §6, §7, §8, §9

The next data set deals with CYP3A4 (Homo sapiens (Human), UniProt P08684). In words: Mechanism based inhibition of CYP3A4 assay (MBI 3A4). Type of data set: in vitro ADME. The conditions noted are these: human liver microsomes, 25 uM compound; hydroxy-midazolam formation after 30 min preincubation relative to 0 min. Here is the method:
The time dependent inhibition towards CYP3A4 is assayed in human liver microsomes (0.02 mg/mL) with midazolam (15 μM) as a substrate. The test compounds and water control (wells w/o test compound) are preincubated in presence of NADPH (1 mM) with human liver microsomes (0.2 mg/mL) at a concentration of 25 uM for 0 min and 30 min. After preincubation, the incubate is diluted 1:10 and the substrate midazolam is added for the main incubation (15 min). The main incubation is quenched with acetonitrile and the formation of hydroxy-midazolam is quantified via LC/MS-MS. The formation of hydroxy-midazolam from the 30 min preincubation relative to the formation from the 0 min preincubation is used as a readout. Values of less than 100% mean that the substrate midazolam is metabolized to a lower extent upon 30 min preincubation compared to 0 min preincubation. In general low effects upon 30 min preincubation are desired (corresponding to values close to 100%/not different to the values determined with water control).

The next data set deals with Caco-2 cell monolayers. Kind of data set: Caco-2 assay (permeability and efflux ratio). Type of data set: in vitro ADME. The conditions noted are these: 10 μM. Background: Caco-2 monolayers are a common model of the intestinal barrier.

Here are results for 1 molecule from US20250019385A1, “SPIROCYCLIC ANNULATED 2-AMINO-3-CYANO THIOPHENES AND DERIVATIVES FOR THE TREATMENT OF CANCER” (Boehringer Ingelheim International GmbH, priority 2023, published 2025).

Usually IC50 stands for the concentration needed to halve the response being measured.

Sequence of KRAS (WT)::CRAF protein::protein interaction (P01116 other isoform, or with tags, fused parts or gaps): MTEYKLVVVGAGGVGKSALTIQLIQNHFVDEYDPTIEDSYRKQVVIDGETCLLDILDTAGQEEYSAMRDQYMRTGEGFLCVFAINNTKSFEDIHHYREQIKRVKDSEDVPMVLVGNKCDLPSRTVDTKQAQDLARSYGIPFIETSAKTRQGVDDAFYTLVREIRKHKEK
Sequence of CYP3A4 (P08684 whole entry): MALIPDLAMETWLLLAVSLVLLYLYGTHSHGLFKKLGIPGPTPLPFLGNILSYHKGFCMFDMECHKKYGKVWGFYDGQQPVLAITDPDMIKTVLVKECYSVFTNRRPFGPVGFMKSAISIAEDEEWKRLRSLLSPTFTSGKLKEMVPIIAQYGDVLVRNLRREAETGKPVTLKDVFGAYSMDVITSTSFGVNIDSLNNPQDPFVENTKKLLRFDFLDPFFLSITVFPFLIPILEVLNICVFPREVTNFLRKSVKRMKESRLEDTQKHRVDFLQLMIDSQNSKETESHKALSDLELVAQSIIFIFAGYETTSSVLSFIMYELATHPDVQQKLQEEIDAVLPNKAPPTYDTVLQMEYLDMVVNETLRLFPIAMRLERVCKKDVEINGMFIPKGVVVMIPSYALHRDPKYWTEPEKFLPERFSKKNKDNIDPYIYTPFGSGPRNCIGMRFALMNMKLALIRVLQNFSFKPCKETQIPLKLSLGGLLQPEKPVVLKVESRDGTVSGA
Sequence of KRAS (G12D)::CRAF protein::protein interaction (P01116 other isoform, or with tags, fused parts or gaps G12D): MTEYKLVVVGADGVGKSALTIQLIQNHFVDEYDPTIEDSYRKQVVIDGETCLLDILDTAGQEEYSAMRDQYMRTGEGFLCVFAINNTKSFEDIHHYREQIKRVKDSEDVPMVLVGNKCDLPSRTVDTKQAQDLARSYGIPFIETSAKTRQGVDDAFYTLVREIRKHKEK
Sequence of KRAS (G12V)::CRAF protein::protein interaction (P01116 other isoform, or with tags, fused parts or gaps G12V/C118S): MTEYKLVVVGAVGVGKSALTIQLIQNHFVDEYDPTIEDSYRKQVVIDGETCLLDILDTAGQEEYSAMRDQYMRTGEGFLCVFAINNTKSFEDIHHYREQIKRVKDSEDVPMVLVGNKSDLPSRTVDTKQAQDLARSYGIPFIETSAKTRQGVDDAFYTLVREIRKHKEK

As to `C[C@H](Oc1nc(-c2noc3c2CCC[C@@]32CCCc3sc(N)c(C#N)c32)nc2c1CC[C@]21CNCCO1)[C@@H]1C[C@@H](F)CN1C` [II-20], the results for the IC50 in data set [1], in data set [2] and in data set [3] were 82 nM, 129 nM and 815 nM, respectively. In addition, the “MBI 3A4” value at CYP3A4 is given as 95%. Moreover, in the data set with Caco-2 cell monolayers (Caco-2 apical to basolateral permeability, pH 7.4), the “Caco PappAB” value is 0.3 ×10⁻⁶ cm/s. For the same molecule, the “Caco ER” value in the data set with Caco-2 cell monolayers (Caco-2 efflux ratio PappBA/PappAB) was 303.8.
